Results published in BigSolDB 2.1.

OC[C@@H](O)C(O)[C@@H](O)CO (some centres not stated)
Conditions	solubility (mole fraction)
in DMF, 293.21 K	0.0411
in DMF, 298.29 K	0.0504
in DMF, 303.26 K	0.0609
in DMF, 308.24 K	0.0736
in DMF, 313.22 K	0.0895
in DMF, 318.32 K	0.11
in DMF, 323.2 K	0.134
in DMF, 328.24 K	0.166
in DMF, 333.27 K	0.204
in acetone, 293.29 K	0.000203
in acetone, 298.18 K	0.00024
in acetone, 303.26 K	0.000304
in acetone, 308.22 K	0.000401
in acetone, 313.2 K	0.000543
in acetone, 318.23 K	0.000743
in acetone, 323.2 K	0.00101
in ethanol, 293.23 K	0.00173
in ethanol, 298.28 K	0.00242
in ethanol, 303.17 K	0.00309
in ethanol, 308.21 K	0.00397
in ethanol, 313.19 K	0.00522
in ethanol, 318.29 K	0.00709
in ethanol, 323.24 K	0.00966
in ethanol, 328.19 K	0.0132
in ethanol, 333.22 K	0.0179
in isopropanol, 293.28 K	0.00113
in isopropanol, 298.2 K	0.00154
in isopropanol, 303.23 K	0.00212
in isopropanol, 308.19 K	0.00268
in isopropanol, 313.32 K	0.00342
in isopropanol, 318.21 K	0.00443
in isopropanol, 323.16 K	0.00588
in isopropanol, 328.21 K	0.00798
in isopropanol, 333.27 K	0.0109
in isopropanol, 338.19 K	0.0146
in isopropanol, 343.23 K	0.0194
in n-butanol, 293.16 K	0.00113
in n-butanol, 298.21 K	0.00154
in n-butanol, 303.26 K	0.00212
in n-butanol, 308.27 K	0.00268
in n-butanol, 313.22 K	0.00342
in n-butanol, 318.16 K	0.00443
in n-butanol, 323.23 K	0.00588
in n-butanol, 328.32 K	0.00798
in n-butanol, 333.24 K	0.0109
in n-butanol, 338.22 K	0.0146
in n-butanol, 343.76 K	0.0194
in n-pentanol, 293.2 K	0.000298
in n-pentanol, 298.18 K	0.000483
in n-pentanol, 303.26 K	0.000734
in n-pentanol, 308.29 K	0.00101
in n-pentanol, 313.19 K	0.00136
in n-pentanol, 318.24 K	0.00188
in n-pentanol, 323.29 K	0.00263
in n-pentanol, 328.23 K	0.00364
in n-pentanol, 333.22 K	0.005
in n-pentanol, 338.33 K	0.00682
in n-pentanol, 343.24 K	0.00903
in toluene, 293.26 K	3.99e-05
in toluene, 298.28 K	4.18e-05
in toluene, 303.19 K	4.52e-05
in toluene, 308.17 K	5e-05
in toluene, 313.23 K	5.63e-05
in toluene, 318.33 K	6.42e-05
in toluene, 323.21 K	7.31e-05
in toluene, 328.22 K	8.37e-05
in toluene, 333.3 K	9.6e-05
in toluene, 338.16 K	0.000109
in toluene, 343.19 K	0.000124
in water, 293.28 K	0.162
in water, 298.3 K	0.18
in water, 303.17 K	0.203
in water, 308.21 K	0.232
in water, 313.29 K	0.266
in water, 318.26 K	0.302
in water, 323.25 K	0.339
in water, 328.21 K	0.377
